This note sets out measurements from patent US4006231A, “N-aminosulfenylated derivatives of carbofuran” (priority 1974, dated 1977).

In general, LD50 refers to the dose at which mortality reaches 50%. Usually LC50 stands for the concentration that kills 50% of the test population.

One data set has as its system adult female houseflies. In words: whole plant or invertebrate. The conditions noted are these: Musca domestica, topical, 24 h, read-out: Houseflies LD50. The protocol:
Toxicity of the compounds of the present invention to houseflies was tested using the technique described by March and Metcalf (Bull. Calif. State Dept. Agr. 38, No. 2, 93-101 [1949]): Solutions of test compounds in acetone were prepared at a range of concentrations. Adult female houseflies (Muscadomesticus) were treated with one drop of acetone solution, applied to the prothorax, using a syringe calibrated to deliver 1.00 ± 0.05 mm^3 drops. Twenty flies were treated at each dosage, each test compound was applied at 8 to 10 dosage levels. Each test was replicated three times. […] A one-inch square of cotton saturated with 40% sugar solution was provided for food in each carton. The cartons of flies were held in a constant temperature chamber at 60° F and 60% relative humidity for 24 hours before mortality counts were made. Flies totally unable to make crawling or walking movements were counted as dead. LD50 values were calculated in the conventional manner.

Data set [1] concerns larvae of Culex fatigans (mosquitoes). In words: Toxicity to mosquitoes, fourth-instar larvae. To be noted: Culex quinquefasciatus, 24 h, read-out: Mosquitoes LC50. The procedure: Toxicity of the compounds of the present invention to mosquitoes was tested using the technique described by Mulla, Metcalf and Geib (Mosquito News 28, No. 2, 236 [ 1966]): A 1% (w/v) stock solution was prepared by dissolving the test compound in acetone. The appropriate amount of stock solution was added with stirring to 100 ml of tap water and 20-25 fourth-instar larvae of Culex fatigans were placed in the solution. After 24 hours, the counts were taken. Larvae not able to rise to the surface on touch were counted as dead. Each concentration was run in duplicate and each material was run on two or three different days. The average percent mortality was plotted against the logarithm of the concentration (in ppm) and the LC50 value determined by inspection.

Data set [2] is described as follows: Acute oral toxicity to mice. To be noted: mouse, in vivo. The protocol:
Acute oral toxicity of the compounds of the present invention to mice was determined after the manner of Hollingworth, Fukuto and Metcalf (J. Agr. Food Chem. 15, 235 [ 1967]): Solutions of the compounds at each of a series of concentrations were prepared in olive oil or propylene glycol as solubility required. A dose of 0.25 ml of each solution was administered to each of four female white Swiss mice using the "bolus"-tipped syringe. […] Final mortality determinations were made 48 hours after treatment.

Data set [3] has as its system pea aphid. In words: Systemic insecticidal activity, soil-watering technique, pea aphid. Format: in vivo, Macrosiphum pisi. To be noted: Acyrthosiphon pisum, 48 h, 25 ml to soil, infested after 3 days, counted 2 days later, read-out: % Kill, pea aphid, systemic.
Data set [4] relates to Mexican bean beetle. In words: Residual contact activity (7-day), Mexican bean beetle. It counts as in vivo. To be noted: Epilachna varivestis, 48 h, surface aged seven days, read-out: % Kill, Mexican bean beetle, Residual (7-day). The protocol:
(§1) Initial Contact Activity: One-half gram of test compound was dissolved in 40 ml of acetone and this solution was dispersed in 360 ml of water containing one drop of isooctylphenyl polyethoxyethanol. An aliquot of this solution was diluted with water to provide a solution containing 1250 ppm of active ingredient. […] At this time, the dead and living insects (or mites) were counted and the percent kill was calculated.
(§2) Residual Contact Activity: The residual contact activity of the compounds was determined on the same organisms using the technique described above, except that in each case the treated surface was allowed to dry and was exposed to normal light and air for seven days before introduction of the mites or insects. […]

Data set [5] concerns two-spotted spider mite. Description: Residual contact activity (7-day), two-spotted spider mite. It counts as in vivo. The conditions noted are these: Tetranychus urticae, 48 h, surface aged seven days, read-out: % Kill, two-spotted spider mite, Residual (7-day). The procedure:
as §1, §2

The test system of data set [6] is granary weevil. In words: Residual contact activity (7-day), granary weevil. The conditions noted are these: Sitophilus granarius, 48 h, surface aged seven days, read-out: % Kill, granary weevil, Residual (7-day). It counts as in vivo. The procedure: as §1, §2
Data set [7] deals with Mexican bean beetle. In words: Initial contact activity, Mexican bean beetle. Format: in vivo. To be noted: Epilachna varivestis, 48 hours exposure, read-out: % Kill, Mexican bean beetle, Initial. The procedure: as §1
Data set [8] deals with milkweed bug. Description: Initial contact activity, milkweed bug. It counts as in vivo, Oncopeltus fascinatus. The conditions noted are these: Oncopeltus fasciatus, 48 hours exposure, read-out: % Kill, milkweed bug, Initial. The protocol:
as §1

Data set [9] deals with southern army worm. In words: Residual contact activity (7-day), southern army worm. Format: in vivo, Prodenia eridania. The conditions noted are these: 1250 ppm, surface aged seven days; 2880 min. The protocol:
as §1, §2

In data set [10] the test system is southern army worm. Description: Initial contact activity, southern army worm. It counts as in vivo, Prodenia eridania. To be noted: 1250 ppm, 48 hours exposure. The procedure: as §1
For data set [11], the system named is two-spotted spider mite. In words: Systemic insecticidal activity, soil-watering technique, two-spotted spider mite. Format: in vivo. The conditions noted are these: Tetranychus urticae, 48 h, 25 ml to soil, infested after 3 days, counted 2 days later, read-out: % Kill, two-spotted spider mite, systemic.
Data set [12] deals with pea aphid. Description: Initial contact activity, pea aphid. It counts as in vivo, Macrosiphum pisi. The conditions noted are these: Acyrthosiphon pisum, 48 hours exposure, read-out: % Kill, pea aphid, Initial. The protocol:
as §1

Data set [13] concerns confused flour beetle. Description: Residual contact activity (7-day), confused flour beetle. It counts as in vivo. To be noted: Tribolium confusum, 48 h, surface aged seven days, read-out: % Kill, confused flour beetle, Residual (7-day). The procedure: as §1, §2
The subject of data set [14] is two-spotted spider mite. Description: Initial contact activity, two-spotted spider mite. It counts as in vivo. To be noted: Tetranychus urticae, 48 hours exposure, read-out: % Kill, two-spotted spider mite, Initial. The protocol:
as §1

Data set [15] has as its system confused flour beetle. Description: Initial contact activity, confused flour beetle. It counts as in vivo. To be noted: Tribolium confusum, 48 hours exposure, read-out: % Kill, confused flour beetle, Initial. The protocol:
as §1

The test system of data set [16] is plum curculio. In words: Residual contact activity (7-day), plum curculio. It counts as in vivo. To be noted: Conotrachelus nenuphar, 48 h, surface aged seven days, read-out: % Kill, plum curculio, Residual (7-day). The procedure:
as §1, §2

In data set [17] the test system is granary weevil. In words: Initial contact activity, granary weevil. The conditions noted are these: Sitophilus granarius, 48 hours exposure, read-out: % Kill, granary weevil, Initial. Format: in vivo. The protocol:
as §1

Data set [18] relates to southern army worm. Description: Systemic insecticidal activity, soil-watering technique, southern army worm. It counts as in vivo, Prodenia eridania. To be noted: 156 ppm, 25 ml to soil, infested after 3 days, counted 2 days later.
Data set [19] deals with milkweed bug. Description: Residual contact activity (7-day), milkweed bug. To be noted: Oncopeltus fasciatus, 48 h, surface aged seven days, read-out: % Kill, milkweed bug, Residual (7-day). Format: in vivo, Oncopeltus fascinatus. The protocol:
as §1, §2

Data set [20] concerns Mexican bean beetle. In words: Systemic insecticidal activity, soil-watering technique, Mexican bean beetle. Format: in vivo. The conditions noted are these: Epilachna varivestis, 48 h, 25 ml to soil, infested after 3 days, counted 2 days later, read-out: % Kill, Mexican bean beetle, systemic.
The subject of data set [21] is pea aphid. In words: Residual contact activity (7-day), pea aphid. The conditions noted are these: Acyrthosiphon pisum, 48 h, surface aged seven days, read-out: % Kill, pea aphid, Residual (7-day). Format: in vivo, Macrosiphum pisi. The protocol: as §1, §2
In data set [22] the test system is plum curculio. Description: Initial contact activity, plum curculio. It counts as in vivo. To be noted: Conotrachelus nenuphar, 48 hours exposure, read-out: % Kill, plum curculio, Initial. The protocol: as §1

Molecules are shown by their SMILES. Values after ≈ are worked out from the molar mass of the structure shown.

In the case of `CNC(=O)Oc1cccc2c1OC(C)(C)C2` [Carbofuran, 2,3-dihydro-2,2-dimethyl-7-benzofuranyl methylcarbamate], the LD50 with adult female houseflies was about 6.7 mg/kg. Also, the LC50 in data set [1] turned out to be 0.052 µg/mL (≈ 0.235 µM). The compound also displayed a median lethal dose (LD50) at 48 h in data set [2] of about 2 mg/kg.
On to `CN(C)SN(C)C(=O)Oc1cccc2c1OC(C)(C)C2` [I, 2,3-Dihydro-2,2-dimethyl-7-benzofuranyl (Dimethylaminosulfenyl) (methyl)carbamate], for which the results for the mortality at 156 ppm in the data set on pea aphid [3], in the data set with two-spotted spider mite [11] and in the data set on Mexican bean beetle [20] were 100%, 73% and 100%, respectively. Also, in the data set with adult female houseflies, the LD50 is about 15 mg/kg. The mortality at 1250 ppm in the data set with Mexican bean beetle [4] turned out to be 95%; in the data set with two-spotted spider mite [5] it was 3%; in the data set with granary weevil [6] it was 63%; with Mexican bean beetle [7], 100%; in the data set on milkweed bug [8] it was 100%; with pea aphid [12], 100%. Besides, the mortality at 1250 ppm in the data set with confused flour beetle [13] was determined as 0%; with two-spotted spider mite [14] it was 100%; in the data set with confused flour beetle [15] it was 100%; in the data set with plum curculio [16] it was 5%; in the data set on granary weevil [17], 100%; with milkweed bug [19], 100%. The mortality at 1250 ppm with pea aphid [21] was determined as 95%; with plum curculio [22], 100%. In addition, the LC50 in data set [1] turned out to be 0.027 µg/mL (≈ 0.0911 µM). The “% Kill, southern army worm, Residual (7-day)” value in the data set on southern army worm [9] was 80%. Further, the “% Kill, southern army worm, Initial” value in the data set on southern army worm [10] is recorded as 100%. This compound also yielded a 50% lethal dose (LD50) at 48 h in data set [2] of 10 to 20 mg/kg. The “% Kill, southern army worm, systemic” value with southern army worm [18] came out at 100%.
For the compound `CN(SN1CCOCC1)C(=O)Oc1cccc2c1OC(C)(C)C2` [II, 2,3-Dihydro-2,2-dimethyl-7-benzofuranyl (Methyl)(morpholinosulfenyl)carbamate], the mortality at 156 ppm with pea aphid [3] is 100%; with two-spotted spider mite [11] it was 76%; in the data set with Mexican bean beetle [20] it was 100%. The LD50 with adult female houseflies is about 10.5 mg/kg. For the same compound, the mortality at 1250 ppm in the data set with Mexican bean beetle [4] was 100%; with two-spotted spider mite [5] it was 4%; in the data set with granary weevil [6] it was 100%; in the data set with Mexican bean beetle [7], 100%; in the data set on milkweed bug [8], 100%; with pea aphid [12], 100%. In addition, the mortality at 1250 ppm was found to be 0% with confused flour beetle [13]; 97% in the data set on two-spotted spider mite [14]; 100% in the data set with confused flour beetle [15]; 100% in the data set on plum curculio [16]; 100% in the data set with granary weevil [17]; 100% in the data set with milkweed bug [19]. In addition, the mortality at 1250 ppm with pea aphid [21] and in the data set with plum curculio [22] was 100% throughout. Besides, in data set [1], the LC50 was determined as 0.048 µg/mL (≈ 0.142 µM). The “% Kill, southern army worm, Residual (7-day)” value in the data set on southern army worm [9] was found to be 83%. In addition, in the data set on southern army worm [10], the “% Kill, southern army worm, Initial” value was 100%. Further, the LD50 at 48 h in data set [2] was 10 to 20 mg/kg. In addition, the “% Kill, southern army worm, systemic” value in the data set on southern army worm [18] came out at 100%.
